Test results published in PubChem BioAssay (NCI).
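Protocol summary: plate cells (96-well), add compound at 5 concentrations, incubate 48 h, interpolate endpoints linearly. TGI: total growth inhibition.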

What was measured:
Assay in all cases: growth of human tumour cells (NCI), 48 h
[1] = system: HOP-62 NSCLC
[2] = system: SF-539 CNS
[3] = system: SR leukemia
[4] = system: SF-295 CNS
[5] = system: SW-620 colon
[6] = system: OVCAR-5 ovarian
[7] = system: HCC-2998 colon
[8] = system: 786-0 renal
[9] = system: SNB-19 CNS
[10] = system: SK-MEL-28 melanoma
[11] = system: HT29 colon
[12] = system: NCI-H23 lung
[13] = system: U251 CNS
[14] = system: HL-60(TB) leukemia
[15] = system: UACC-62 melanoma
[16] = system: SK-OV-3 ovarian
[17] = system: RXF 393 renal
[18] = system: HOP-92 NSCLC

Row | Structure (SMILES) | TGI [1] [µM] | TGI [2] [µM] | TGI [3] [µM] | TGI [4] [µM] | TGI [5] [µM] | TGI [6] [µM] | TGI [7] [µM] | TGI [8] [µM] | TGI [9] [µM] | TGI [10] [µM] | TGI [11] [µM] | TGI [12] [µM] | TGI [13] [µM] | TGI [14] [µM] | TGI [15] [µM] | TGI [16] [µM] | TGI [17] [µM] | TGI [18] [µM]
1 | COc1cccc(/C=C2\C(=O)N(C(=O)Cc3ccccc3)N=C2C)c1 | > 100 | > 100 | > 100 | > 100 | > 100 | > 100 | > 100 | > 100 | > 100 | > 100 | > 100 | > 100 | > 100 | > 100 |  |  |  | 
2 | C/C(CN1C(=O)c2ccccc2C1=O)=N\NS(=O)(=O)c1ccc(F)cc1 | > 100 | > 100 | > 100 | > 100 | > 100 | > 100 | > 100 | > 100 | > 100 | > 100 | > 100 | > 100 | > 100 | > 100 | > 100 | > 100 |  | 
3 | CO[C@H](c1ccccc1)[C@H](C)N(C)c1ccc2ccccc2c1C1=NC(C)(C)CO1 | 36 | 29.9 | 50.1 | 30.8 | 33.4 |  |  | 30.1 | 84.7 | 34 | 25.1 | 31 | 30.5 | 61.3 | > 100 | 33.3 | 27.6 | 30.6
4 | CO[C@@]12CC(=O)/C(=C(O)\C=C\c3ccccc3)C(=O)[C@]1(OC)Cc1ccccc1O2 | 51.7 | 55.4 |  | > 100 | > 100 | 82.8 | 47 | 70.2 | > 100 | 59.8 | > 100 | 61.8 | 59.1 |  | 52.3 | > 100 | 36.5 | > 100
5 | C[N+](C)(Cc1ccc(NC(=O)CCCC(=O)ON2C(=O)CCC2=O)cc1)c1ccccc1 |  | < 0.01 | < 0.01 | > 100 | > 100 | < 0.01 |  | > 100 | > 100 | < 0.01 | > 100 | > 100 | > 100 | > 100 | < 0.01 | > 100 |  | < 0.01
6 | COc1ccc(/C(Cl)=C/c2ccc(Cl)c(Cl)c2)cc1 | 79 | > 100 | 47.9 | 74.9 | > 100 |  | 43.2 | > 100 | > 100 | > 100 | 47.5 | 63 | 50.4 | 44.9 | > 100 | > 100 | 33.6 | 78.7
7 | O=C(Nc1cc(Cl)c(Cl)cc1Cl)C(=O)C(C(=O)c1ccc2ccccc2c1)C1OC(=O)c2ccccc21 (stereo unspecified) | 43.5 | 13 | > 100 | 21 | 25.6 | 31.9 |  | 20.9 | 33.2 | 22.1 | 37.3 | 15.2 | 17 | 88.1 | 26.9 | > 100 | 15.1 | 7.96
